Earlier results as cited in patent US9090623B2, “Compound JK12A and preparation thereof” (LIANYUNGANG JINKANG HEXIN PHARMACEUTICAL CO., LTD., priority 2012, dated 2015).

Test system: HeLa S3 cells
Settings: reported in Org. Lett. 2008, 10, 489-491; cited from earlier work

Which “cytotoxicity against HeLa S3 cells IC50” value does the source give for `COC(=O)c1ccc(N2CC3CNC(=O)C2(C(=O)OC)N3C)cc1` (stereo not shown) [Aplaminal] here?
The value was 0.51 µg/mL.
